Each compound was assayed against CA IX (Homo sapiens, UniProt Q16790) (assay: biochemical). Settings: not given.

Row | SMILES | log10 of Ki in nM
1 | NS(=O)(=O)c1ccc(-c2cn([C@@H]3O[C@H](CO)[C@@H](O)[C@H](O)[C@H]3O)nn2)cc1 [A1466] | 1.897
2 | NS(=O)(=O)c1ccc(-c2cccc(C=O)c2)cc1 [A1584] | 1.993
3 | CC(=O)OC[C@H]1O[C@@H](n2cc(-c3ccc(S(N)(=O)=O)cc3)nn2)[C@H](OC(C)=O)[C@@H](OC(C)=O)[C@@H]1OC(C)=O [A1660] | 2.079
4 | COC(=O)[C@H]1O[C@@H](n2cc(COC(=O)c3ccc(S(N)(=O)=O)cc3)nn2)[C@H](OC(C)=O)[C@@H](OC(C)=O)[C@@H]1OC(C)=O [A1674] | 2.097
5 | CCCCCOS(N)(=O)=O [A1675] | 2.100
6 | CC(=O)NNc1ccccc1S(N)(=O)=O [A1755] | 2.243
7 | NS(=O)(=O)c1ccc(C(=O)NCc2cn([C@@H]3O[C@H](CO)[C@H](O)[C@H](O)[C@H]3O)nn2)cc1 [A1960] | 2.556
8 | CCOC(=O)c1cc(O)ccc1O [A2120] | 2.934
9 | NS(=O)(=O)OCCCCOS(N)(=O)=O [A2532] | 4.732

Same assay, conditions: experimental value from the library Ki (IDs A…, B…); values equal log10 of Ki in nM

Row | SMILES | log10 of Ki in nM
10 | COc1cccc(C(=O)CN2C(=O)C=C(C)OS2(=O)=O)c1 [A1737] | 2.207
11 | COc1ccc2c(c1)/C(=N/c1ccc(C(=O)Nc3ccc(S(N)(=O)=O)cc3)cc1)C(=O)N2 [A1756, reference compound] | 2.243
12 | CCCN(CCC)S(=O)(=O)c1ccc(C(=O)Nc2ccccc2[N+](=O)[O-])cc1 [A1771] | 2.283
13 | CCCN(CCC)S(=O)(=O)c1ccc(C(=O)N[C@@H](CS)C(=O)O)cc1 [A1793] | 2.305
14 | NS(=O)(=O)c1ccc(NC(=O)c2ccc(/N=C3\C(=O)Nc4ccc([N+](=O)[O-])cc43)cc2)cc1 [A1847] | 2.375
15 | CCCCC(=O)OC[C@H]1O[C@@H](n2cc(-c3ccc(S(N)(=O)=O)cc3)nn2)[C@H](OC(=O)CCCC)[C@@H](OC(=O)CCCC)[C@H]1OC(=O)CCCC [A1944] | 2.525
16 | NS(=O)(=O)c1ccc(NC(=O)N2CCN(CCO)CC2)cc1 [A1995] | 2.639
17 | NS(=O)(=O)c1ccc(CNC(=O)CCCNC(=O)NCc2ccccc2)cc1 [A2003] | 2.660
18 | COc1ccc(-c2cnc(C3CCC3)o2)cc1S(N)(=O)=O [B0034] | 0.491
19 | NS(=O)(=O)c1ccc(-c2cnc(C3CCC3)o2)cc1 [B0121] | 0.813

Same assay, conditions: experimental value from the library Ki (IDs A…, B…); values equal log10 of Ki in nM; read-out: pKi (exp.) (converted)

Row | SMILES | Ki [nM]
20 | Nc1nc(N)c2nc(CNCCc3ccc(S(=O)(=O)O)cc3)cnc2n1 [A2175] | 1000

Same assay, conditions: experimental value used for the QSPR model, library compounds (IDs A…, B…); equals log10 of Ki in nM

Row | SMILES | log10 of Ki in nM
21 | NS(=O)(=O)c1cccc(-c2cn([C@@H]3O[C@H](CO)[C@@H](O)[C@H](O)[C@H]3O)nn2)c1 [A1463] | 1.893
22 | CC(C)(F)CNS(=O)(=O)c1ccc(N)cc1 [A1490] | 1.919
23 | Cc1c(C(=O)NCCN(C)C)cc(-c2ccc(-c3ccccc3)cc2)n1-c1ccc(S(N)(=O)=O)cc1 [A1493] | 1.919
24 | Nc1c(Br)cc(S(N)(=O)=O)cc1I [A1512] | 1.934
25 | Cc1cc(C)c(S(=O)(=O)Nc2ccc(C3C4=C(CC(C)(C)CC4=O)N(c4ccc(S(N)(=O)=O)cc4)C4=C3C(=O)CC(C)(C)C4)cc2)c(C)c1 [A1534] | 1.954
26 | N#Cc1c(-c2ccc(Br)cc2)cn(-c2ccc(S(N)(=O)=O)cc2)c1NC(=S)Nc1ccc(Br)cc1 [A1551] | 1.960
27 | Cc1ccc(-n2c(=S)[nH]c3c(c(-c4ccc(Br)cc4)cn3-c3ccc(S(N)(=O)=O)cc3)c2=N)cc1 [A1740] | 2.210
28 | CCCCC(=O)OC[C@H]1O[C@@H](n2cc(-c3ccc(S(N)(=O)=O)cc3)nn2)[C@H](OC(=O)CCCC)[C@@H](OC(=O)CCCC)[C@@H]1OC(=O)CCCC [A2148] | 2.978
29 | NS(=O)(=O)c1ccc2nc(-n3cc(C=O)c(-c4ccc(F)cc4)n3)sc2c1 [A2181] | 3.009
30 | Cc1ccc(NC(=S)NNC(=O)c2ccccc2O)cc1 [A2191] | 3.095
31 | Oc1ccccc1/C=N/CCCC/N=C/c1ccccc1O [A2462] | 4.021
32 | NS(=O)(=O)c1ccc(-n2cc(-c3ccc(Br)cc3)c3c2ncn2nc4c5ccccc5nc-4nc32)cc1 [B0025] | 0.431
33 | CC(=O)N1C(=O)/C(=N\n2cnc3c(c(-c4ccc(Br)cc4)cn3-c3ccc(S(N)(=O)=O)cc3)c2=N)c2ccccc21 [B0037] | 0.491
34 | NS(=O)(=O)c1ccc(NC2=NC(=O)/C(=N/Nc3ccc(Cl)cc3)S2)cc1 [B0138] | 0.863

Same assay, conditions: experimental value used for the QSPR model, library compounds (IDs A…, B…); equals log10 of Ki in nM; read-out: pKi (exp.) (converted)

Row | SMILES | Ki [nM]
35 | O=C(Cc1ccccc1Br)Oc1ccc2c(c1)OS(=O)(=O)C=C2 [A2451] | 10000

Same assay, conditions: library compounds with IDs A… and B…; from observed Ki (nM)

Row | SMILES | log10 of Ki in nM
36 | NS(=O)(=O)c1ccc(-n2cc(CO[C@@H]3O[C@H](COCc4ccccc4)[C@@H](OCc4ccccc4)[C@H]3OCc3ccccc3)nn2)cc1 [A1497] | 1.924
37 | Cc1cc(C)c(S(=O)(=O)Nc2cccc(C3C4=C(CC(C)(C)CC4=O)N(c4ccc(S(N)(=O)=O)cc4)C4=C3C(=O)CC(C)(C)C4)c2)c(C)c1 [A1535] | 1.954
38 | O=C1NS(=O)(=O)c2cc([N+](=O)[O-])ccc21 [A1570] | 1.981
39 | NS(=O)(=O)c1ccc2nc(-n3cc(/C=N/O)c(-c4ccc([N+](=O)[O-])cc4)n3)sc2c1 [A1655] | 2.076
40 | Cc1c(C(=O)N2CCN(C)CC2)cc(-c2ccc3ccccc3c2)n1-c1ccc(S(N)(=O)=O)cc1 [A1687] | 2.124
41 | NS(=O)(=O)c1ccc(CNC(=O)Cc2ccccc2)cc1 [A1701] | 2.134
42 | COc1ccc(NC(=S)Nc2c(C#N)c(-c3ccc(Br)cc3)cn2-c2ccc(S(N)(=O)=O)cc2)cc1 [A1714] | 2.149
43 | CCCN(CCC)S(=O)(=O)c1ccc(C(=O)NCC)cc1 [A1724] | 2.179
44 | NS(=O)(=O)c1ccc(/N=c2\scc(-c3ccc(Br)cc3)n2C2CCCCC2)cc1 [A1905] | 2.442
45 | Cc1ccc(-c2cnc(C3CC3)o2)cc1S(N)(=O)=O [A1938] | 2.502
46 | CC1(C)CC(=O)C2=C(C1)N(c1ccc(S(N)(=O)=O)cc1)C1=C(C(=O)CC(C)(C)C1)C2c1cccc([N+](=O)[O-])c1 [A1986] | 2.623
47 | Cc1cc(C)cc(NC(=O)Nc2ccc3c(C)cc(=O)oc3c2)c1 [A2046] | 2.785
48 | NC(=S)NNC(=O)c1ccncc1 [A2157] | 2.988
49 | C=CCOc1cc(=S)oc2ccccc12 [A2239] | 3.483
50 | CC(C)(C)OC(=O)N(CCCCN(CCCNC(=O)C(F)(F)F)C(=O)OC(C)(C)C)CCCNC(=O)C(F)(F)F [A2554] | 5.093
51 | NS(=O)(=O)c1ccc(-n2cc(-c3ccc(Br)cc3)c3c2ncn2nnnc32)cc1 [B0028] | 0.447
52 | COc1ccc2c(c1)/C(=N\NC(=O)c1cnn(-c3ccc(S(N)(=O)=O)cc3)c1-c1ccccc1)C(=O)N2 [B0041] | 0.519
53 | N#Cc1c(-c2ccc(Br)cc2)cn(-c2ccc(S(N)(=O)=O)cc2)c1NC(=O)c1ccc(Br)cc1 [B0101] | 0.724

Same assay, conditions: library compounds with IDs A… and B…; from observed Ki (nM); read-out: pKi (exp.) (converted)

Row | SMILES | Ki [nM]
54 | CC(C)CCC[C@@H](C)[C@H]1CC[C@@H]2[C@@H]1CC[C@H]1[C@H]2CC=C2C[C@@H](OS(N)(=O)=O)CC[C@@]21C [A2177] | 1000

Same assay, conditions: read-out: pKi (exp.) (converted)

Row | SMILES | Ki [nM]
55 | CCOC(=O)c1cc(S(N)(=O)=O)c(SSc2cc(Cl)c(C(=O)OCC)cc2S(N)(=O)=O)cc1Cl [A2456] | 10000

Source: PMC6151961 (Journal of Enzyme Inhibition and Medicinal Chemistry, 2018)
